Common to all, as to assay: Cell proliferation assay (Alamar Blue)
What all share (assay type): cell-based

The test system of one assay is HCT-116. The conditions noted are these: Homo sapiens, 96 h, HCT-116 cells, four days.
The subject of the next assay is MiaPaCa. The note with it: Homo sapiens, MIA PaCa-2, 96 h, MiaPaCa cells, four days. Here is the method:
(§1) A representative cell-proliferation assay protocol using Alamar Blue dye (stored at 4°C, use 20ul per well) is described hereafter. 96-well plate setup and compound treatment • a. Split and trypsinize cells. • b. Count cells using hemocytometer. • c. Plate 4,000-5,000 cells per well in 100 µl of medium and seed into a 96-well plate according to the following plate layout. Add cell culture medium only to wells B10 to B12. Wells B1 to B9 have cells but no compound added. [formula] [formula] • d. Add 100 µl of 2X drug dilution to each well in a concentration shown in the plate layout above. At the same time, add 100 µl of media into the control wells (wells B10 to B12). Total volume is 200 µl/well. • e. Incubate four (4) days at 37°C, 5% CO2 in a humidified incubator. • f. Add 20µl Alamar Blue reagent to each well. • g. Incubate for four (4) hours at 37°C, 5% CO2 in a humidified incubator. • h. Record fluorescence at an excitation wavelength of 544nm and emission wavelength of 590nm using a microplate reader.
(§2) In the assays, cells are cultured with a test compound for approximately four days, the dye then is added to the cells and fluorescence of […] dye is detected after approximately four hours. Different types of cells can be utilized in the assays (e.g., HCT-116 human colorectal carcinoma cells, PC-3 human prostatic cancer cells and MiaPaca human pancreatic carcinoma cells). Anti-proliferative effects of representative compounds are provided hereafter.

The test system of a further assay is Jurkat. The conditions noted are these: Homo sapiens, 96 h, Jurkat cells, four days. Here is the method: as §1, §2
A further assay concerns MDAMB231. The conditions noted are these: Homo sapiens, MDA-MB-231, 96 h, MDAMB231 cells, four days. Here is the method:
as §1, §2

Consider `Cc1cccc(Nc2nc3cc(C(=O)O)ccc3c3cnccc23)c1` [drawing 356], for which the IC50 was greater than 10 µM in the assay with HCT-116, 8.33 µM with MiaPaCa and 3.45 µM in the assay on Jurkat.
For `O=C(O)c1ccc2c(c1)nc(Nc1cccc(C(F)(F)F)c1)c1ccncc12` [drawing 357], the half-maximal inhibitory concentration (IC50) was found to be 5.14 µM in the assay with HCT-116, 8.55 µM in the assay on MiaPaCa and 3.15 µM with Jurkat.
As for `O=C(O)c1ccc2c(c1)nc(Nc1cc(F)cc(F)c1)c1nc(NC3CC3)ncc12` [drawing 358], the IC50 was greater than 10 µM in the assay with HCT-116, 2.32 µM with MiaPaCa and 6.02 µM in the assay on Jurkat.
As for `O=C(O)c1ccc2c(c1)nc(Nc1cccc(F)c1)c1nc(NC3CC3)ncc12` [drawing 359], the IC50 is greater than 10 µM in the assay with HCT-116, 3.27 µM with MiaPaCa and 3.56 µM in the assay with Jurkat.
For `COc1cccc(Nc2nc3cc(C(=O)O)ccc3c3cnc(NC4CC4)nc23)c1` [drawing 360], the half-inhibitory concentration (IC50) in the assay with HCT-116 was greater than 10 µM; with MiaPaCa, 2.85 µM; in the assay on Jurkat, 3.44 µM.
As for `CN(C)CCNc1ncc2c(n1)c(Nc1ccc(F)c(Cl)c1)nc1cc(C(=O)O)ccc12` [drawing 361], the results for the IC50 in the assay on HCT-116, in the assay on MiaPaCa and in the assay with Jurkat were greater than 10 µM, 2.14 µM and 1.25 µM, respectively.
With `O=C(O)c1ccc2c(c1)nc(Nc1ccc(F)c(Cl)c1)c1nc(NCc3ccccn3)ncc12` [drawing 362], the 50% inhibitory concentration (IC50) is greater than 10 µM in the assay on HCT-116, 8.21 µM in the assay on MiaPaCa and 2.59 µM in the assay on Jurkat.
In the case of `COC(CNc1ncc2c(n1)c(Nc1ccc(F)c(Cl)c1)nc1cc(C(=O)O)ccc12)OC` [drawing 363], the IC50 is greater than 10 µM with HCT-116, 3.41 µM in the assay with MiaPaCa and 1.12 µM in the assay on Jurkat.
For `NC(=O)c1ccc2c(c1)nc(Nc1cccc(C(F)(F)F)c1)c1nc(NC3CC3)ncc12` [drawing 364], in that order: greater than 10 µM, 3.97 µM and 1.16 µM.
In the case of `CNC(=O)c1ccc2c(c1)nc(Nc1cccc(C(F)(F)F)c1)c1nc(NC3CC3)ncc12` [drawing 366], the IC50 with HCT-116 was greater than 10 µM; in the assay with MiaPaCa, 11.9 µM; in the assay with Jurkat, 3.65 µM.
In the case of `O=C(O)c1ccc2c(c1)nc(Nc1ccc(F)c(Cl)c1)c1nc(NCc3cccnc3)ncc12` [drawing 367], the figures for the IC50 with HCT-116, with MiaPaCa and with Jurkat were greater than 10 µM, 1.97 µM and 1.5 µM, respectively.
As to `O=C(O)c1ccc2c(c1)nc(Nc1ccc(F)c(Cl)c1)c1nc(NCc3ccncc3)ncc12` [drawing 368], the IC50 in the assay with HCT-116 is greater than 10 µM; with MiaPaCa it was 4.5 µM; in the assay with Jurkat, 5.11 µM.
For `O=C(O)c1ccc2c(c1)nc(Nc1ccccc1)c1nc(Nc3ccccc3)ncc12` [drawing 369], the IC50 in the assay on HCT-116 was greater than 10 µM; with MiaPaCa it was 5.12 µM; in the assay on Jurkat, 8.98 µM.
For `CCOC(=O)CCNC(=O)c1ccc2c(c1)nc(Nc1cccc(C(F)(F)F)c1)c1nc(NC3CC3)ncc12` [drawing 371], the IC50 was greater than 10 µM with HCT-116, 0.33 µM in the assay with MiaPaCa and 3.75 µM in the assay on Jurkat.
As to `O=C(O)c1ccc2c(c1)nc(Nc1ccc(F)c(Cl)c1)c1ncncc12` [drawing 374], the half-inhibitory concentration (IC50) in the assay with MDAMB231 was 1.11 µM.
For the compound `O=C(O)c1ccc2c(c1)nc(Nc1ccccc1)c1nc(NC3CC3)ncc12` [drawing 389], half-maximal inhibition with MDAMB231 (IC50) required 0.73 µM. This IC50 is about 1.5-fold lower than that of the compound before.
Compound `CCCNc1ncc2c(n1)c(Nc1ccccc1)nc1cc(C(=O)O)ccc12` [drawing 390] yielded an IC50 in the assay on MDAMB231 of 18.2 µM.
In the assay on MDAMB231, `COCCNc1ncc2c(n1)c(Nc1ccccc1)nc1cc(C(=O)O)ccc12` [drawing 391] registered an IC50 of 24.4 µM.
`O=C(O)c1ccc2c(c1)nc(Nc1ccccc1)c1nc(NCCO)ncc12` [drawing 392] showed an IC50 in the assay on MDAMB231 greater than 50 µM.
Regarding `O=C(O)c1ccc2c(c1)nc(Nc1ccccc1)c1nc(NCCCO)ncc12` [drawing 393], the IC50 in the assay on MDAMB231 was 48.2 µM.
`O=C(O)c1ccc2c(c1)nc(Nc1ccccc1)c1nc(NC3CCNCC3)ncc12` [drawing 394] registered an IC50 in the assay on MDAMB231 greater than 50 µM.
`CCN(CC)CCNc1ncc2c(n1)c(Nc1ccccc1)nc1cc(C(=O)O)ccc12` [drawing 395] returned an IC50 in the assay with MDAMB231 of 10.5 µM.
Compound `O=C(O)c1ccc2c(c1)nc(Nc1ccccc1)c1nc(NCCN3CCOCC3)ncc12` [drawing 396] came in with an IC50 in the assay with MDAMB231 of 2.44 µM.
Consider `O=C(O)c1ccc2c(c1)nc(Nc1ccccc1)c1nc(NCCCN3CCOCC3)ncc12` [drawing 397], for which the IC50 in the assay on MDAMB231 was greater than 50 µM.
In turn, `C#Cc1cccc(Nc2nc3cc(C(=O)O)ccc3c3cnc(NC4CC4)nc23)c1` [drawing 398] yielded an IC50 in the assay with MDAMB231 of 4.9 µM.
Consider `C#Cc1cccc(Nc2nc3cc(C(=O)O)ccc3c3cnc(NCCC)nc23)c1` [drawing 399], for which the IC50 with MDAMB231 was 10.4 µM.
`C#Cc1cccc(Nc2nc3cc(C(=O)O)ccc3c3cnc(NCCOC)nc23)c1` [drawing 400]: the IC50 in the assay on MDAMB231 came out at 4.74 µM.
For the compound `C#Cc1cccc(Nc2nc3cc(C(=O)O)ccc3c3cnc(NC4CCNCC4)nc23)c1` [drawing 401], in the assay on MDAMB231, the IC50 is greater than 50 µM.
The same measure, in the same setting: next, `C#Cc1cccc(Nc2nc3cc(C(=O)O)ccc3c3cnc(NCCCN4CCOCC4)nc23)c1` [drawing 402]: 12.5 µM.
The compound `C#Cc1cccc(Nc2nc3cc(C(=O)O)ccc3c3cnc(NC)nc23)c1` [drawing 403] came in with an IC50 in the assay on MDAMB231 of 5.21 µM.
In the assay with MDAMB231, `O=C(O)c1ccc2c(c1)nc(Nc1ccc(Cl)c(C(F)(F)F)c1)c1ccncc12` [drawing 404] showed an IC50 of 4.43 µM.
As to `O=C(O)c1ccc2c(c1)nc(Nc1cccc(Cl)c1)c1nc(NC3CC3)ncc12` [drawing 405], half-maximal inhibition in the assay on MDAMB231 (IC50) required 3.93 µM. The IC50 values of the last two compounds are within 1.5-fold of each other.
In the case of `O=C(O)c1ccc2c(c1)nc(Nc1cccc(C(F)(F)F)c1)c1ncncc12` [drawing 406], half-maximal inhibition in the assay on MDAMB231 (IC50) required 2.93 µM.
Compound `CCOc1ncc2c(n1)c(Nc1cccc(C(F)(F)F)c1)nc1cc(C(=O)O)ccc12` [drawing 407] showed an IC50 with MDAMB231 of 26.5 µM.
Still for that read-out and setting: to `CNc1ncc2c(n1)c(Nc1cccc(Cl)c1)nc1cc(C(=O)O)ccc12` [drawing 408] belongs 8.28 µM; to `CN(C)c1ncc2c(n1)c(Nc1cccc(Cl)c1)nc1cc(C(=O)O)ccc12` [drawing 409], 9.82 µM.
In turn, `Nc1ncc2c(n1)c(Nc1cccc(Cl)c1)nc1cc(C(=O)O)ccc12` [drawing 410] yielded an IC50 with MDAMB231 of 4.12 µM.
In the assay on MDAMB231, `CC(C)Nc1ncc2c(n1)c(Nc1cccc(Cl)c1)nc1cc(C(=O)O)ccc12` [drawing 411] had an IC50 of 20.8 µM.
Compound `O=C(O)c1ccc2c(c1)nc(Nc1cccc(C(F)(F)F)c1)c1nc(NC3CC3)ncc12` [drawing 412] had an IC50 in the assay with MDAMB231 of 9.19 µM.
With `CCNc1ncc2c(n1)c(Nc1cccc(Cl)c1)nc1cc(C(=O)O)ccc12` [drawing 413], the IC50 in the assay with MDAMB231 was determined as 6.87 µM.
As to `CNc1ncc2c(n1)c(Nc1ccc(F)c(Cl)c1)nc1cc(C(=O)O)ccc12` [drawing 414], in the assay on MDAMB231, the IC50 was found to be 15.8 µM.
Still for that read-out and setting: next, `Nc1ncc2c(n1)c(Nc1ccc(F)c(Cl)c1)nc1cc(C(=O)O)ccc12` [drawing 415]: 6.53 µM; `O=C(O)c1ccc2c(c1)nc(Nc1ccc(F)c(Cl)c1)c1nc(NC3CC3)ncc12` [drawing 416]: 7.12 µM; `COCCNc1ncc2c(n1)c(Nc1ccc(F)c(Cl)c1)nc1cc(C(=O)O)ccc12` [drawing 417]: 12.6 µM.
In the assay on MDAMB231, `C#Cc1cccc(Nc2nc3cc(C(=O)O)ccc3c3cnc(NCCOCC)nc23)c1` [drawing 418] registered an IC50 of 31.6 µM.
`C#Cc1cccc(Nc2nc3cc(C(=O)O)ccc3c3cnc(NCCCOCC)nc23)c1` [drawing 419] showed an IC50 in the assay on MDAMB231 of 5.22 µM.
In the case of `C#Cc1cccc(Nc2nc3cc(C(=O)O)ccc3c3cnc(NCCCOC(C)C)nc23)c1` [drawing 420], in the assay on MDAMB231, 7.05 µM corresponded to half-maximal inhibition (IC50).
As to `O=C(O)c1ccc2c(c1)nc(Nc1cccc(Cl)c1)c1nc(O)ncc12` [drawing 421], in the assay on MDAMB231, the IC50 is greater than 50 µM.
On the same count and under the same terms, next, `Cc1ncc2c(n1)c(Nc1cccc(Cl)c1)nc1cc(C(=O)O)ccc12` [drawing 422]: 5.48 µM.
`C#Cc1cccc(Nc2nc3cc(C(=O)OC)ccc3c3cnc(NOC)nc23)c1` [drawing 423] registered an IC50 in the assay on MDAMB231 greater than 50 µM.
In the assay on MDAMB231, `COC(=O)c1ccc2c(c1)nc(Nc1cccc(Cl)c1)c1nc(NCCC(N)=O)ncc12` [drawing 424] had a half-inhibitory concentration (IC50) of 27.2 µM.
Take `NC(=O)CCNc1ncc2c(n1)c(Nc1cccc(Cl)c1)nc1cc(C(=O)O)ccc12` [drawing 425]: the concentration for half-maximal inhibition (IC50) in the assay with MDAMB231 was greater than 50 µM.
Take `O=C(O)CCNc1ncc2c(n1)c(Nc1cccc(Cl)c1)nc1cc(C(=O)O)ccc12` [drawing 426]: the 50% inhibitory concentration (IC50) in the assay with MDAMB231 was greater than 50 µM.
Regarding `Cc1cccc(Nc2nc3cc(C(=O)O)ccc3c3cnccc23)c1` [drawing 427], the IC50 in the assay with MDAMB231 was found to be 17.5 µM.
Compound `O=C(O)c1ccc2c(c1)nc(Nc1cccc(C(F)(F)F)c1)c1ccncc12` [drawing 428] had a concentration for half-maximal inhibition (IC50) in the assay on MDAMB231 of 13 µM.
In turn, `O=C(O)c1ccc2c(c1)nc(Nc1cc(F)cc(F)c1)c1nc(NC3CC3)ncc12` [drawing 429] gave an IC50 in the assay with MDAMB231 of 23 µM. This IC50 is about 1.8-fold higher than that of the compound before.
The compound `O=C(O)c1ccc2c(c1)nc(Nc1cccc(F)c1)c1nc(NC3CC3)ncc12` [drawing 430] had an IC50 in the assay on MDAMB231 of 12.8 µM. Compared with the last compound, the IC50 is about 1.8-fold lower.
In turn, `COc1cccc(Nc2nc3cc(C(=O)O)ccc3c3cnc(NC4CC4)nc23)c1` [drawing 431] gave an IC50 in the assay with MDAMB231 of 20.1 µM.
